{
  "source": "patent US9512152B2",
  "about": "“Phospholipid compound containing unsaturated fatty acid derivative having cyclopropane ring” (NISHIZAKI BIOINFORMATION RESEARCH INSTITUTE, priority 2013, dated 2016)",
  "key": {"[1]": {"tested_on": "3T3L1-GLUT4myc adipocytes", "assay": "Analysis of GLUT4 trafficking (cellular membrane transport of GLUT4)", "type": "cell-based", "details": "20 min", "description": "3T3L1-GLUT4myc fibroblast strain expressing GLUT4myc was used. The cells are constructed by inserting human c-MYC epitope (14 amino acids) into the first ectodomain. The cells were cultured in Dulbecco's Modified Eagles Medium (DMEM) added with 10% (v/v) bovine serum, penicillin (final concentration, 100 U/ml) and streptomycin (final concentration, 0.1 mg/ml) in a humid environment under 5% CO2 and 95% air at 37° C. When the cells reached confluence (day 0), the medium was exchanged with DMEM added with 10% (v/v) fetal bovine serum (FBS), 1 μM dexamethasone, 0.5 mM 3-isobutyl-methyl-xanthine and 0.1 mg/ml insulin to allow for differentiation from fibroblast into adipocyte. The medium was exchanged with DMEM added with 10% (v/v) FBS on day 3, day 7 and day 11. On day 14, the cells were used for the experiment.\n3T3L1-GLUT4myc adipocytes were incubated in Krebs-Ringer-HEPES buffer [136 mM NaCl, 4.7 mM KCl, 1.25 mM CaCl2, 1.25 mM MgSO4 and 20 mM HEPES, pH 7.5] containing 0.2% (w/v) bovine serum albumin and added with 10 mM glucose at 37° C. for 1 hr. The cells were incubated in the presence or absence of insulin, phospholipid or a derivative thereof for 20 min. Then, the cells were homogenized by sonication in an ice-cooled mitochondria buffer containing 1% (v/v) protease inhibitor cocktail [210 mM mannitol, 70 mM sucrose, and 1 mM ethylenediaminetetraacetic acid (EDTA), 10 mM HEPES, pH 7.5]. Sequentially, the homogenate was centrifuged at 4° C. for 5 min at 3,000 rpm. The supernatant was further centrifuged at 4° C. for 15 min at 11,000 rpm. […] The protein concentration of each fraction was measured using BCA protein assay kit (Thermo Fisher Scientific, Waltham, Mass., USA). […] The immunoreactivity was detected using ECL kit (Invitrogen), and visualized using a chemical luminescence detection system (chemiluminescence detection system; GE Healthcare, Piscataway, N.J., USA). The signal density was measured using an image analysis software (Image Gauge software; GE Healthcare)."}, "[2]": {"tested_on": "C57BL/KsJ-lepr db/lepr db mouse", "assay": "Glucose tolerance test in type 2 diabetes model mouse", "type": "in vivo", "details": "oral, 0.01-3 mg/kg, 30 min before glucose 2 g/kg, FIG. 10", "description": "C57BL/KsJ-lepr^db/lepr^db mouse (female, 8-week-old) (CLEA Japan; Tokyo, Japan) was used. The glucose tolerance test was performed using the mouse starved for 12 hr. Glucose (2 g/ml/kg body weight) was administered by gavage, and the time point thereof was taken as 0 h. diDCP-LA-PE (0.01, 0.1, 1, 3 mg/kg), insulin (0.75 U/kg) or brine was orally administered 30 min before administration of glucose. The blood (10 μl) was collected from the tail vein at the time points of 0, 30, 60, and 90 min, and each plasma sample which was labeled with p-aminobenzylethylester and prepared from the obtained blood was loaded on high performance liquid chromatography (HPLC) system (LC-10ATvp; Shimadzu Co., Kyoto, Japan). The glucose concentration was calculated from a peak area/concentration analytical curve prepared using the standard glucose solution."}, "[3]": {"tested_on": "STZ-treated C57BL/6J mouse", "assay": "Oral glucose tolerance test in streptozotocin-treated type 1 diabetes model mouse", "type": "in vivo", "details": "oral 1 mg/kg, 4 consecutive days before OGTT and 30 min before glucose, FIG. 11", "description": "C57BL/6J mouse (male, 8-week-old) (Japan SLC Inc.; Shizuoka, Japan) was used. Streptozotocin (STZ; 250 mg/kg) or saline as a control was injected intraperitoneally. After 4 days from the injection, an oral glucose tolerance test (OGTT) was performed."}},
  "data": [
    {"smiles": "CCCCCC1CC1CC1CC1CCCCCCCC(=O)OC[C@H](COP(=O)(O)OCCN)OC(=O)CCCCCCCC1CC1CC1CC1CCCCC", "note": "(stereo partly shown) [diDCP-LA-PE, 1,2-o-bis-[8-{2-(2-pentyl-cyclopropylmethyl)-cyclopropyl}-octanoyl]-sn-glycero-3-phosphatidylethanolamine]", "values": [
      {"measurement": "Promotion of cellular membrane transport of GLUT4", "setting": "[1]; 1 μM, FIG. 7", "value": "an action to promote cellular membrane transport of GLUT4"},
      {"measurement": "Concentration dependence of cellular membrane transport of GLUT4", "setting": "[1]; given concentrations, FIG. 8", "value": "promotes cellular membrane transport of GLUT4 in a concentration-dependent manner"},
      {"measurement": "Decrease of blood glucose level", "setting": "[2]", "value": "decrease the blood glucose level in a dose-dependent manner"},
      {"measurement": "Suppression of increase in blood glucose", "setting": "[3]", "value": "significantly suppresses an increase in the blood glucose"}
    ]}
  ]
}
